Assay results from patent US20210395327A1, “Growth Hormone-Releasing Hormone Antagonists and Uses Thereof” (United States Government As Represented By The Department …, priority 2019, published 2021).
pIC50: −log10 of the molar value. “Also recorded” adds a separate entry of the source. Non-standard residues stand in square brackets, D forms with d. Residues, ends and D or L forms follow the SMILES beside them. *: point of attachment. Phenylacetyl(2,3,4,5,6-F5) = O=C(Cc1c(F)c(F)c(F)c(F)c1F)*; Phe(F5) = N[C@@H](Cc1c(F)c(F)c(F)c(F)c1F)C(=O)O; Phe(4-Cl) = N[C@@H](Cc1ccc(Cl)cc1)C(=O)O; hArg = N=C(N)NCCCC[C@H](N)C(=O)O; 12Ado = NCCCCCCCCCCCC(=O)O; Nle = CCCC[C@H](N)C(=O)O; Orn = NCCC[C@H](N)C(=O)O; Abu = CC[C@H](N)C(=O)O

Assays:
[1] = test system: GH release from rat pituitary cells; assay: Inhibition of GH release from rat pituitary cells in vitro (GH ELISA); assay type: cell-based; details: analogs 20 nM, then with 1 nM GHRH(1-29)NH2 for 30 minutes; Control = 1.00
Experimental: In vitro assessment of the antagonistic activity of GHRH analogs. Rats were decapitated and pituitaries were collected in pre-warmed HBSS (Hanks' Balanced Salt Solution). Tissue was then cut into small pieces and digested in HBSS medium containing 3% BSA, 50 μg/ml gentamycin and 0.5% collagenase for 50 minutes at 37° C. Cells were further dispersed by pipetting and passed through a 100 μm cell strainer with the addition of DMEM containing 50 μg/ml gentamycin. 10% horse serum and 2.5% FBS (growth medium). Cells were harvested at 475×g for 2 minutes, resuspended in fresh growth medium and seeded onto poly-D-lysine-coated 24-well plates (7 pituitaries/plate). Cells were left to recover for 4 days. Growth medium was then replaced with serum-free DMEM for 4 hours and GHRH analogs (at concentration of 20 nM) were added in DMEM containing 0.1% BSA for 30 minutes. Cells were replenished with medium containing the same concentration of the analogs and 1 nM GHRH(1-29)NH2 for 30 minutes. Medium from this step was collected, centrifuged at 800 g for 3 minutes and GH concentration was determined by ELISA (ALPCO Diagnostics, Mill Valley, Calif.) according to the manufacturer's instruction.

[2] = test system: HCC827 lung cancer cells; assay: In vitro cell viability, HCC827; assay type: cell-based, human; details: Table 3B; 5 μM for 72 H; MIA-602 = 1
How it was run: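 Human tumour lines were exposed to GHRH antagonist at 1, 2.5 or 5 μM for 72 h with medium refreshed every 48 h, after 24 h in low-serum (0.5% FBS) medium. Cell viability (CellTiter 96) was expressed as inhibition relative to MIA602.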

[3] = molecular target: T1, membrane GHRH-receptors on human anterior pituitary cells (Homo sapiens, UniProt Q02643); assay: Receptor binding, displacement of 125I-[His1,Nle27]-hGH-RH(1-32)NH2 on human pituitary membranes; details: for pIC50: membrane receptors on human anterior pituitary cells, mean of two to three determinations, read-out: IC50
T1 construct: Human pituitary was purchased from the National Hormone and Peptide Program; tissue National Hormone and Peptide Program; host or cells: human pituitary (membrane fractions)
T1 sequence (Q02643 23-423): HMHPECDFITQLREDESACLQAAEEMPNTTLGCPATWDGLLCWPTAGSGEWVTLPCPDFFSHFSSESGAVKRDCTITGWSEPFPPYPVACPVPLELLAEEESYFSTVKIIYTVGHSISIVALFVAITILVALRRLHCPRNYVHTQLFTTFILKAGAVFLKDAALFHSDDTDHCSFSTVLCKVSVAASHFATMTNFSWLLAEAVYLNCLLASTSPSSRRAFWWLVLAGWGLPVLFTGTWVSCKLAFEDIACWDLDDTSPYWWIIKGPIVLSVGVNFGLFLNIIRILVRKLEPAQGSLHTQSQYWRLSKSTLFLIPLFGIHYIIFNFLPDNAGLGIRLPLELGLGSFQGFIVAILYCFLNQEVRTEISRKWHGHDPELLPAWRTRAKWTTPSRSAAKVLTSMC
How it was run: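 Membrane fractions from human pituitary; peptides displace 125I-[His1,Nle27]-hGH-RH(1-32)NH2. IC50 is the dose giving 50% inhibition of specific binding, from duplicate tubes. Relative affinity is the ratio of test IC50 to hGH-RH(1-29)NH2 IC50.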

| SMILES | Relative GH release [1] | In vitro relative inhibitory potency in comparison to MIA-602, HCC827 [2] | pIC50 [3] | binding affinity to membrane receptors of human pituitary cells (in words) ([3]; competitive binding, human pituitary membrane fractions) |
| --- | --- | --- | --- | --- |
| CCCC[C@H](NC(=O)[C@@H](NC(=O)[C@H](CC(=O)O)NC(=O)[C@H](CCC(N)=O)NC(=O)[C@H](CC(C)C)NC(=O)[C@H](CC(C)C)NC(=O)[C@H](CCCCN)NC(=O)[C@H](CCCNC(=N)N)NC(=O)[C@H](C)NC(=O)[C@H](CO)NC(=O)[C@H](CC(C)C)NC(=O)[C@H](CCC(N)=O)NC(=O)[C@H](CC)NC(=O)[C@H](CC(C)C)NC(=O)[C@@H](NC(=O)[C@H](CCCCN)NC(=O)[C@H](CCCNC(=N)N)NC(=O)[C@H](Cc1ccc(OC)cc1)NC(=O)[C@H](CCCCNC(=N)N)NC(=O)[C@H](CC(N)=O)NC(=O)[C@@H](NC(=O)[C@H](Cc1ccc(Cl)cc1)NC(=O)[C@@H](NC(=O)[C@H](C)NC(=O)[C@H](CC(=O)O)NC(=O)[C@@H](CCCNC(=N)N)NC(=O)[C@H](Cc1ccc(O)cc1)NC(=O)CCCCCCCCCCCNC(=O)Cc1c(F)c(F)c(F)c(F)c1F)[C@@H](C)CC)[C@@H](C)O)C(C)C)[C@@H](C)CC)C(=O)N[C@H](CCCNC(=N)N)C(=O)N[C@@H](CCCCNC(=N)N)C(=O)NCCCCCCCCCCCC(N)=O [AVR-333, 5FPhAC-Ada-Tyr-DArg-Asp-Ala-Ile-Cpa-Thr-Asn-Har-Tyr(Me)-Arg-Lys-Val-Leu-Abu-Gln-Leu-Ser-Ala-Arg-Lys-Leu-Leu-Gln-Asp-Ile-Nle-DArg-Har-Ada-NH2] ({Phenylacetyl(2,3,4,5,6-F5)-12Ado}-Y[dR]DAI[Phe(4-Cl)]TN[hArg]Y(Me)RKVL[Abu]QLSARKLLQDI[Nle][dR][hArg][12Ado]-NH2) | 0.88 ± 0.03 | 1.177 | 9.52 | – |
| CCCC[C@H](NC(=O)[C@@H](NC(=O)[C@H](CC(=O)O)NC(=O)[C@H](CCC(N)=O)NC(=O)[C@H](CC(C)C)NC(=O)[C@H](CC(C)C)NC(=O)[C@H](CCCN)NC(=O)[C@H](Cc1c[nH]cn1)NC(=O)[C@H](C)NC(=O)[C@H](CO)NC(=O)[C@H](CC(C)C)NC(=O)[C@H](CCC(N)=O)NC(=O)[C@H](CC)NC(=O)[C@H](CC(C)C)NC(=O)[C@@H](NC(=O)[C@H](CCCN)NC(=O)[C@H](Cc1c[nH]cn1)NC(=O)[C@H](Cc1ccc(OC)cc1)NC(=O)[C@H](CCCCNC(=N)N)NC(=O)[C@H](C)NC(=O)[C@@H](NC(=O)[C@H](Cc1c(F)c(F)c(F)c(F)c1F)NC(=O)[C@@H](NC(=O)[C@H](C)NC(=O)[C@H](CC(=O)O)NC(=O)[C@@H](CCCNC(=N)N)NC(=O)[C@H](Cc1ccc(O)cc1)NC(=O)CCCCCCCCCCCNC(=O)Cc1c(F)c(F)c(F)c(F)c1F)[C@@H](C)CC)[C@@H](C)O)C(C)C)[C@@H](C)CC)C(=O)N[C@H](CCCNC(=N)N)C(=O)N[C@@H](CCCCNC(=N)N)C(=O)NCCCCCCCCCCCC(N)=O [AVR-553, 5FPhAC-Ada-Tyr-DArg-Asp-Ala-Ile-5FPhe-Thr-Ala-Har-Tyr(Me)-His-Orn-Val-Leu-Abu-Gln-Leu-Ser-Ala-His-Orn-Leu-Leu-Gln-Asp-Ile-Nle-DArg-Har-Ada-NH2] ({Phenylacetyl(2,3,4,5,6-F5)-12Ado}-Y[dR]DAI[Phe(F5)]TA[hArg]Y(Me)H[Orn]VL[Abu]QLSAH[Orn]LLQDI[Nle][dR][hArg][12Ado]-NH2) | 0.82 ± 0.04 | 2.582 | 9.82 | higher binding affinity in comparison to MIA-602; also recorded: highest binding affinities |
